Literature values in patent US11571429B2, “Method and compounds for treating peripheral neuropathy” (UPEXMED CO. LTD., priority 2017, dated 2023).

Test system: diabetic neuropathy pain
Conditions: taken orally

SMILES: CN(C)CCC=C1c2ccccc2CCc2ccccc21 [Amitriptyline, amitriptyline]
- NNT; number of patients needed to treat for at least 50% pain relief: 1.3
